Consider one compound from patent US20110059869A1, “Method for Increasing Enzymatic Reactivity” (RIKEN, priority 2008, published 2011).

Assay [1] deals with restriction enzyme PstI. As to the kind of experiment: PstI cleavage reactions with different distances from bead or plate surface to the DNA cleavage site. The assay is classed as biochemical. Particulars: 0.6 M trehalose vs none; cleavage site 20 bp, 50 bp, 100 bp from surface; beads and plates. Here is the method:
Three biotin-labeled DNA fragments I, II, and III (Seq. ID Nos. 4 to 6, Scheme 4) were cleaved at their respective restriction enzyme PstI site and the size of the DNA fragments released was examined. Paramagnetic streptavidin beads were washed with the accessory 1× binding buffer and recovered with a magnetic stand to remove the supernatant. They were then suspended in identical buffer. To each of the three types of biotin-labeled DNA fragments (500 ng) was admixed an equal volume of 2× binding buffer, the bead solution was added, and the mixture was stirred gently for 15 minutes with top to bottom inversion and rotation to induce adsorption. The beads to which the sample had adsorbed were recovered with the magnetic stand, washed three times with 1× binding buffer, and washed one more time with 1× PstI buffer. […] The precipitate of DNA fragments obtained was dissolved in 1× TE (pH 7.5) and analyzed with Bioanalyzer DNA 1000 assay (Agilent Technologies).
Three biotin-labeled DNA fragments I, II, and III (Seq. ID Nos. 4 to 6, Scheme 4) were cleaved at their respective restriction enzyme PstI site and the size of the DNA fragments released was examined. […] The precipitate of DNA fragments obtained was dissolved in 1× TE (pH 7.5) and analyzed with Bioanalyzer DNA 1000 assay (Agilent Technologies). […]

The test system of assay [2] is λ phage cDNA library. In words: Preparation of a λ phage cDNA library, titer from plaques. Particulars: samples prepared under trehalose (+) 0.6 M vs trehalose (−). On the procedure: Double-stranded cDNA/RNA hybrid samples that had been immobilized on streptoavidin beads and synthesized under trehalose (+) and trehalose (−) conditions were employed to prepare a λ phage cDNA library. Following synthesis of double-stranded cDNA, the beads were washed with blunting buffer (T4 DNA polymerase buffer). Blunting reaction solution (1× T4 DNA polymerase buffer, 0.6 M trehalose, 0.1 mM dNTP mix, T4 DNA polymerase 5 units) was added and the mixture was incubated for 20 minutes at 12° C. Following the reaction, the beads were washed three times with 0.1× TE, and then washed one more time with 1× ligation buffer. Ligation reaction solution (1× T4 DNA ligation buffer, 0.6 M trehalose, 5′ end BamHI overhang adapter 2 ug, T4 DNA ligase 800 units) was added and the mixture was reacted overnight at 16° C. The beads were washed three times with 0.1× TE and then washed once with 1× XhoI. Restriction enzyme XhoI reaction solution (1× XhoI buffer, 0.6 M trehalose, XhoI 40 units) was added and the mixture was incubated for three hours at 37° C. The beads were recovered with a magnetic stand and the supernatant containing the cDNA that had been released by XhoI cutting was separated. […] A 10 uL quantity and a 100 uL quantity were admixed to the C600/MgSO4 suspensions to infect them with phage. […] The plaques that appeared were counted and the titer was calculated (Scheme 3).

Assay [3] concerns restriction enzyme PstI. In words: PstI cleavage reaction on a spherical bead surface (DNA fragment III). The assay is classed as biochemical. Particulars: DNA adsorbed to beads, 0.6 M trehalose vs none. On the procedure:
Biotin-labeled DNA fragment III (Seq. ID No. 6, Scheme 4) was cleaved at the restriction enzyme PstI site on the surface of streptavidin beads and the 104 by DNA fragment released was examined. DNA fragment III (500 ng) and 2× binding buffer were admixed in equal volume quantities, a solution of beads suspended in 1× binding buffer was added, and the mixture was gently stirred with top to bottom inversion and rotation for 15 minutes at room temperature to induce adsorption. The beads onto which the sample had adsorbed were recovered with a magnetic stand, washed three times with 1× binding buffer, and washed once with 1× PstI buffer. Two types of reaction solution (1× PstI buffer, 1× BSA restriction enzyme 40 units) were prepared: a trehalose (+) system to which D(+)-trehalose was added to a final concentration of 0.6 M, and a trehalose (−) system to which no trehalose was added. Each of the reaction solutions was admixed to beads that had been washed and the mixtures were reacted for three hours at 37° C. The beads were recovered with the magnetic stand and cleaved with restriction enzyme. […] The precipitate of DNA fragments obtained was dissolved in 1× TE (pH 7.5) and analyzed with Bioanalyzer DNA 1000 assay (Agilent Technologies).

Regarding `OC[C@H]1O[C@H](O[C@H]2O[C@H](CO)[C@@H](O)[C@H](O)[C@H]2O)[C@H](O)[C@@H](O)[C@@H]1O` [trehalose, D(+)-trehalose], the “yield of DNA released by cleavage” value in assay [1] is reported as “increase”. The “titer of the phage library” value in assay [2] was “clearly better results”. Besides, in assay [3], the “yield of released DNA fragment” value is reported as “higher yield”.
